The record followed here is paper PMC12446476 (Nature Communications, 2025).

The test system of series [1] is Salmonella typhimurium (TA1535, TA1537, TA98 and TA100). In kind it is cell-based. As for the experimental part: Ames assays were performed using four strains of Salmonella typhimurium (TA1535, TA1537, TA98 and TA100) and a single strain of E. coli (WRP2 uvrA) in the presence and absence of S9 tissue homogenate. Dose levels (µg/plate) up to 4000 were assessed for WP2 uvrA and TA98, 500 for TA1535, 250 for TA1537 and 62.5 for TA100.

In series [2] the test system is intracellular N. gonorrhoeae. Briefly: Intracellular killing in HeLa229 cells. Type of series: cell-based, Neisseria gonorrhoeae. The following applies: dilution 0, replicates 1-3, counts 1-2. The procedure: Intracellular killing was assessed within HeLa229 cells (European Collection of Authenticated Cell Cultures, London, UK) that were seeded at ~3 × 10^5 cells/mL and grown to 70–80% confluence in RPMI-glutamine media supplemented with 10% (v/v) heat-inactivated fetal bovine serum (FBS, Gibco, MA, USA). Cells were incubated at 37 °C with 5% CO2 for 24 h, then washed with serum-free RPMI-1640 prior to infection. N. gonorrhoeae was scraped from agar plates and resuspended in Dulbecco’s Phosphate Buffered Saline (DPBS, Sigma-Aldrich), pelleted, then resuspended in RPMI with 2% FBS. Bacterial suspensions were used to infect HeLa229 cells at a multiplicity of infection of 100:1. Plates were briefly centrifuged (500 × g for 5 min), then incubated for one hour. This incubation and all subsequent incubations were performed at 37 °C with 5% CO2. Non-adherent cells were removed by washing with serum-free RPMI, and the remaining extracellular bacteria were killed via resuspension in RPMI-glutamine supplemented with 2% FBS and 200 μg/mL gentamycin and incubation for one hour. […] Azithromycin-treated samples were included for control/comparison. […] Samples were diluted and plated onto chocolate II agar for viable bacteria quantification. Intracellular killing assays were performed at Microbiologics, Kalamazoo, MI, USA, using a method adapted from previous studies[68],[69].

The subject of series [3] is N. gonorrhoeae. Briefly: MIC determination, agar dilution (CLSI). In kind it is cell-based, Neisseria gonorrhoeae. From the text: The 2024 WHO N. gonorrhoeae reference strains were used for quality control. Only whole MIC doubling dilutions are reported. Clinical breakpoints or the epidemiological cutoff (ECOFF, to indicate azithromycin resistance) from EUCAST (v14.0, https://www.eucast.org/clinical_breakpoints) were used to classify isolates as antimicrobial susceptible or resistant. […] Two times the standard inoculum defined by CLSI was used to establish consistent growth in untreated control samples for some strains. In vitro time-kill assays were performed according to CLSI guidelines[65] using Columbia Broth (BD Difco) supplemented with 1% IsoVitaleX Enrichment (BD). Viable bacterial counts were generated by plating 10-fold serially diluted samples on GC agar plates containing 1% IsoVitaleX Enrichment (BD).

Setting [4] is: TA98, without S9, positive control 2 µg/plate.
Where [5] appears, read: TA1537, without S9, positive control 50 µg/plate.
Where [6] appears, read: screening panel N. gonorrhoeae isolate A.
[7] abbreviates: screening panel N. gonorrhoeae isolate B.
The mark [8] stands for this setting: screening panel N. gonorrhoeae isolate C.
The mark [9] stands for this setting: screening panel N. gonorrhoeae isolate D.
[10] abbreviates: screening panel N. gonorrhoeae isolate E.
The mark [11] stands for this setting: screening panel N. gonorrhoeae isolate F.
The mark [12] stands for this setting: screening panel N. gonorrhoeae isolate G.
[13] abbreviates: screening panel N. gonorrhoeae isolate H.
Setting [14] is: screening panel N. gonorrhoeae isolate I.
Where [15] appears, read: screening panel N. gonorrhoeae isolate J.
Setting [16] is: screening panel N. gonorrhoeae isolate K.
Setting [17] is: screening panel N. gonorrhoeae isolate L.
Where [18] appears, read: screening panel N. gonorrhoeae isolate M.
Setting [19] is: screening panel N. gonorrhoeae isolate N.
Setting [20] is: TA100, without S9, positive control 1 µg/plate.
Setting [21] is: TA1535, without S9, positive control 1 µg/plate.

Each structure is given as a SMILES string. Converted amounts (≈) assume the structure as drawn. “And” between values parts separate entries of the source, which are not always exact repeats. Equal entries are not always repeated. Where two headings read alike, the source gives them in different places. Some results are limits rather than exact numbers.

As for `O=[N+]([O-])c1ccc2c(c1)Cc1ccccc1-2` [2-Nitrofluorene, reference compound], in series [1] (setting [4]), the “Ames bacterial mutation assessment, Mean” value was found to be 173; the Colony count is 177 and 172 and 169.

For `Nc1c2ccccc2nc2ccccc12` [9-Aminoacridine, reference compound], in series [1] (setting [5]), the “Ames bacterial mutation assessment, Mean” value was determined as 142; the Colony count is 128 and 153 and 146.

With `CC[C@H]1OC(=O)[C@H](C)[C@@H](O[C@H]2C[C@@](C)(OC)[C@@H](O)[C@H](C)O2)[C@H](C)[C@@H](O[C@@H]2O[C@H](C)C[C@H](N(C)C)[C@H]2O)[C@](C)(O)C[C@@H](C)CN(C)[C@H](C)[C@@H](O)[C@]1(C)O` [Azithryomycin], the “Colony forming units (CFU) of N. gonorrhoeae internalised in HeLa229 cells, colony count” value (shortened to “Colony forming units (CFU)”) in series [2] (isolate ATCC 49226, 3 hr, 2X MIC) was 19 CFU (2×) and 22 CFU and 27 CFU and 29 CFU and 32 CFU; in series [2] (isolate ATCC 49226, 3 hr, 4X MIC) it was 28 CFU and 29 CFU and 24 CFU (2×) and 32 CFU and 22 CFU; in series [2] (isolate ATCC 49226, 3 hr, 8X MIC), 20 CFU and 26 CFU and 27 CFU and 18 CFU and 28 CFU and 17 CFU; in series [2] (isolate ATCC 49226, 6 hr, 2X MIC) it was 1 CFU (3×) and 3 CFU and 2 CFU (2×); in series [2] (isolate ATCC 49226, 6 hr, 4X MIC), 0 CFU (2×) and 1 CFU and 3 CFU (2×) and 5 CFU; in series [2] (isolate ATCC 49226, 6 hr, 8X MIC) it was 1 CFU (3×) and 2 CFU (3×). In addition, the “Colony forming units (CFU)” value in series [2] (isolate ATCC 49226, 10 hr, 2X MIC) was 0 CFU; in series [2] (isolate ATCC 49226, 10 hr, 4X MIC) it was 0 CFU; in series [2] (isolate ATCC 49226, 10 hr, 8X MIC), 0 CFU; in series [2] (isolate ATCC 49226, 24 hr, 2X MIC) it was 0 CFU; in series [2] (isolate ATCC 49226, 24 hr, 4X MIC), 0 CFU; in series [2] (isolate ATCC 49226, 24 hr, 8X MIC) it was 0 CFU. Further, the “Colony forming units (CFU)” value was 12 CFU and 15 CFU and 33 CFU and 32 CFU and 27 CFU and 29 CFU in series [2] (isolate NCTC 13820, 3 hr, 2X MIC); 21 CFU and 16 CFU and 33 CFU and 30 CFU and 20 CFU and 27 CFU in series [2] (isolate NCTC 13820, 3 hr, 4X MIC); 20 CFU and 13 CFU and 26 CFU and 30 CFU (2×) and 21 CFU in series [2] (isolate NCTC 13820, 3 hr, 8X MIC); 0 CFU (2×) and 1 CFU (2×) and 3 CFU (2×) in series [2] (isolate NCTC 13820, 6 hr, 2X MIC); 0 CFU (2×) and 1 CFU and 3 CFU in series [2] (isolate NCTC 13820, 6 hr, 4X MIC).

As to `O=C1CCNc2cc(C=CC(=O)N3CC4C=C(c5ccccc5)CC4C3)cnc2N1` (stereo not drawn) [Compound 3], the Minimum inhibitory concentration in series [3] (setting [6]) came out at 4 µg/mL (≈ 9.99 µM); in series [3] (setting [7]), 2 µg/mL (≈ 4.99 µM); in series [3] (setting [8]) it was 1 µg/mL (≈ 2.5 µM); in series [3] (setting [9]), 2 µg/mL (≈ 4.99 µM); in series [3] (setting [10]) it was 1 µg/mL (≈ 2.5 µM); in series [3] (setting [11]), 4 µg/mL (≈ 9.99 µM). Besides, the Minimum inhibitory concentration in series [3] (setting [12]) was 4 µg/mL (≈ 9.99 µM); in series [3] (setting [13]) it was 4 µg/mL (≈ 9.99 µM); in series [3] (setting [14]) it was 2 µg/mL (≈ 4.99 µM); in series [3] (setting [15]), 2 µg/mL (≈ 4.99 µM); in series [3] (setting [16]) it was over 8 µg/mL; in series [3] (setting [17]), 2 µg/mL (≈ 4.99 µM). Besides, the Minimum inhibitory concentration in series [3] (setting [18]) stood at 2 µg/mL (≈ 4.99 µM); in series [3] (setting [19]), 1 µg/mL (≈ 2.5 µM).

`O=C1CCNc2cc(/C=C/C(=O)N3CCC=C(c4ccccc4)CC3)cnc2N1` [Compound 4]: the Minimum inhibitory concentration in series [3] (setting [6]) amounted to 4 µg/mL (≈ 10.3 µM); in series [3] (setting [7]), 2 µg/mL (≈ 5.15 µM); in series [3] (setting [8]) it was 2 µg/mL (≈ 5.15 µM); in series [3] (setting [9]), 2 µg/mL (≈ 5.15 µM); in series [3] (setting [10]) it was 1 µg/mL (≈ 2.57 µM); in series [3] (setting [11]), 4 µg/mL (≈ 10.3 µM). The Minimum inhibitory concentration amounted to 4 µg/mL (≈ 10.3 µM) in series [3] (setting [12]); 4 µg/mL (≈ 10.3 µM) in series [3] (setting [13]); 2 µg/mL (≈ 5.15 µM) in series [3] (setting [14]); 2 µg/mL (≈ 5.15 µM) in series [3] (setting [15]); 4 µg/mL (≈ 10.3 µM) in series [3] (setting [16]); 2 µg/mL (≈ 5.15 µM) in series [3] (setting [17]). Also, the figures for the Minimum inhibitory concentration in series [3] (setting [18]) and in series [3] (setting [19]) were 2 µg/mL (≈ 5.15 µM) and 1 µg/mL (≈ 2.57 µM), respectively.

With `Cc1oc2ccccc2c1CN(C)C(=O)/C=C/c1cnc2c(c1)NCCC(=O)N2` [Compound 5], the Minimum inhibitory concentration in series [3] (setting [6]) is on record as 1 µg/mL (≈ 2.56 µM); in series [3] (setting [7]), 1 µg/mL (≈ 2.56 µM); in series [3] (setting [8]), 1 µg/mL (≈ 2.56 µM); in series [3] (setting [9]), 1 µg/mL (≈ 2.56 µM); in series [3] (setting [10]) it was 0.5 µg/mL (≈ 1.28 µM); in series [3] (setting [11]), 2 µg/mL (≈ 5.12 µM). In addition, the Minimum inhibitory concentration in series [3] (setting [12]) amounted to 2 µg/mL (≈ 5.12 µM); in series [3] (setting [13]), 2 µg/mL (≈ 5.12 µM); in series [3] (setting [14]), 0.5 µg/mL (≈ 1.28 µM); in series [3] (setting [15]), 1 µg/mL (≈ 2.56 µM); in series [3] (setting [16]), 2 µg/mL (≈ 5.12 µM); in series [3] (setting [17]), 1 µg/mL (≈ 2.56 µM). Moreover, the Minimum inhibitory concentration is 1 µg/mL (≈ 2.56 µM) in series [3] (setting [18]) and 0.5 µg/mL (≈ 1.28 µM) in series [3] (setting [19]).

As to `Cc1c(CN(C)C(=O)/C=C/c2cnc3c(c2)N[C@@H](C)[C@@H](O)C(=O)N3)oc2ccccc12` [Compound 9], the Minimum inhibitory concentration in series [3] (setting [6]) is 2 µg/mL (≈ 4.76 µM); in series [3] (setting [7]) it was 1 µg/mL (≈ 2.38 µM); in series [3] (setting [8]) it was 1 µg/mL (≈ 2.38 µM); in series [3] (setting [9]) it was 1 µg/mL (≈ 2.38 µM); in series [3] (setting [10]) it was at most 0.5 µg/mL; in series [3] (setting [11]), 2 µg/mL (≈ 4.76 µM). Besides, the Minimum inhibitory concentration in series [3] (setting [12]) is recorded as 2 µg/mL (≈ 4.76 µM); in series [3] (setting [13]) it was 2 µg/mL (≈ 4.76 µM); in series [3] (setting [14]) it was 1 µg/mL (≈ 2.38 µM); in series [3] (setting [15]), 1 µg/mL (≈ 2.38 µM); in series [3] (setting [16]) it was 2 µg/mL (≈ 4.76 µM); in series [3] (setting [17]) it was 1 µg/mL (≈ 2.38 µM). The Minimum inhibitory concentration in series [3] (setting [18]) and in series [3] (setting [19]) was 1 µg/mL (≈ 2.38 µM) throughout.

With `[N-]=[N+]=[N-].[Na+]` [Sodium azide, reference compound], the “Ames bacterial mutation assessment, Mean” value in series [1] (setting [20]) is 555; in series [1] (setting [21]), 433. For the same compound, the Colony count was 508 and 554 and 602 in series [1] (setting [20]); 428 and 408 and 464 in series [1] (setting [21]).
